Data published in ChEMBL document CHEMBL4387771, “Discovery of 1,2,3-triazole-based fibroblast growth factor receptor modulators” (Bioorg Med Chem Lett, 2019).
Active and inactive are the calls of the source. No cut-off for these calls is given here.

Columns and labels:
[1] = Metabolic stability in human liver microsomes assessed as metabolic turnover rate per mg protein in presence of NADPH; type: ADME, Microsome
[2] = molecular target: Fibroblast growth factor receptor 1 (Rattus norvegicus) (UniProt Q04589); experiment: Modulation of FGFR in Wistar rat neuronal cells assessed as protection against glutamate-induced toxicity at 10 uM pretreated for 24 hrs followed by glutamate-stimulation and measured after 24 hrs by CCK8 assay relative to SUN13837; type: cell-based
[3] = Lipophilicity, log P of the compound by RP-HPLC analysis; type: physicochemical
[4] = molecular target: CYP3A4 (Homo sapiens, UniProt P08684); experiment: Inhibition of CYP3A4 in human liver microsomes assessed as enzyme residual activity at 100 uM measured after 30 mins relative to control; type: ADME; conditions: read-out: Activity
[5] = Brain to plasma permeability coefficient, Kp of the compound in Sprague-Dawley rat at 1 mg/kg, iv measured after 1 hr; type: ADME, organism-based; conditions: brain and plasma
[6] = Clearance in Sprague-Dawley rat at 1 mg/kg, iv; type: ADME, organism-based; conditions: in vivo
[7] = AUC in Sprague-Dawley rat at 5 mg/kg, po; type: ADME, organism-based; conditions: in vivo
[8] = Elimination half life in Sprague-Dawley rat at 1 mg/kg, iv; type: ADME, organism-based; conditions: in vivo, read-out: beta t1/2 (converted)
[9] = Oral bioavailability in Sprague-Dawley rat at 5 mg/kg; type: ADME, organism-based; conditions: in vivo
[10] = molecular target: Fibroblast growth factor receptor 1 (Rattus norvegicus) (UniProt Q04589); experiment: Modulation of FGFR in Wistar rat neuronal cells assessed as protection against glutamate-induced toxicity at 10 uM pretreated for 24 hrs followed by glutamate-stimulation and measured after 24 hrs in presence of FGFR1 inhibitor PD166866 by CCK8 assay; type: cell-based
[11] = Clearance in Sprague-Dawley rat at 3 mg/kg, iv; type: ADME, organism-based; conditions: in vivo
[12] = Brain to plasma permeability coefficient, Kp of the compound in Sprague-Dawley rat at 3 mg/kg, iv measured after 1 hr; type: ADME, organism-based; conditions: brain and plasma
[13] = Elimination half life in Sprague-Dawley rat at 3 mg/kg, iv; type: ADME, organism-based; conditions: in vivo, read-out: beta t1/2 (converted)

Sequence of Fibroblast growth factor receptor 1 (Rattus norvegicus) (Q04589 whole entry): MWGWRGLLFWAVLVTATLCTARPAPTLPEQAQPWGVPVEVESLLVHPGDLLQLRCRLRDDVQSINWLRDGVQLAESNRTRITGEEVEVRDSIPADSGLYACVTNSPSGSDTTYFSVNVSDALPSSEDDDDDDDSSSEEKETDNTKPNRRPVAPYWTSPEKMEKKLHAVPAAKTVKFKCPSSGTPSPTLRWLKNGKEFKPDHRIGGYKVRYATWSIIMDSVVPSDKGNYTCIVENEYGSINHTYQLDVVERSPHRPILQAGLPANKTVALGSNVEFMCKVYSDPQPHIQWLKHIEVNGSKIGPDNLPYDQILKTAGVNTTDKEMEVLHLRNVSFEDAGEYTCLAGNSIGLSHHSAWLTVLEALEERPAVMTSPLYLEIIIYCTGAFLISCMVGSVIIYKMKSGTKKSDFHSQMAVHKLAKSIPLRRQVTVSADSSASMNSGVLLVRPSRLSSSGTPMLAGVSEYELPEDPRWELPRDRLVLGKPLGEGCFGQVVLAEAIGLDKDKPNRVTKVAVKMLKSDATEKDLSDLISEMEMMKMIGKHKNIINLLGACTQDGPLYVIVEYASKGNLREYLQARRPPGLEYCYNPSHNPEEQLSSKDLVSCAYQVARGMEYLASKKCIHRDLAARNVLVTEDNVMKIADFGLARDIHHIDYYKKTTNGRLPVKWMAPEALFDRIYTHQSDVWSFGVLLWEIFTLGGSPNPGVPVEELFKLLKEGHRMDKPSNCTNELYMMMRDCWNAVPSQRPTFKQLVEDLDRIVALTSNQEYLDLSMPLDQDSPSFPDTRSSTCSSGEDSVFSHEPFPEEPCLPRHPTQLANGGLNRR
Sequence of CYP3A4 (P08684 whole entry): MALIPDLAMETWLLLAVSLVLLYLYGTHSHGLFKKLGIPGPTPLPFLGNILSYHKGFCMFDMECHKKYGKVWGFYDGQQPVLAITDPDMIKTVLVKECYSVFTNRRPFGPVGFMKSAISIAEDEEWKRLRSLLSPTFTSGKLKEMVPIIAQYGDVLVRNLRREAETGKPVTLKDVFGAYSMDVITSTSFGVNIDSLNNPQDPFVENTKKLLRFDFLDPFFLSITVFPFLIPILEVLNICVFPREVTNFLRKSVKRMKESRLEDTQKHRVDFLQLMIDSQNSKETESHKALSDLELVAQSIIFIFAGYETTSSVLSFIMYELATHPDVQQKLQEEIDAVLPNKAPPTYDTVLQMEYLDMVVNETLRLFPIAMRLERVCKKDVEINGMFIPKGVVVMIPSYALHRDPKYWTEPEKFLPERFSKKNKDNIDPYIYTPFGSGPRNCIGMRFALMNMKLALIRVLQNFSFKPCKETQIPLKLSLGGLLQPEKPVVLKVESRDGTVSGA

SMILES	Drug metabolism [1] [pmol/min]	logP [3]	activity at 0.5 h, 100 µM [4] [%]	Kp at 1 h [5]	clearance [6] [L/h/kg]	AUC [7] [µg·h/mL]	half-life [8] [h]	bioavailability [9] [%]	clearance [11] [L/h/kg]	Kp at 1 h [12]	half-life [13] [h]	Activity [2] [%]	Activity [10]
Cc1ccc(OCc2cn(C3CCN(Cc4ccccc4)CC3)nn2)nn1	45	3.5	100	–	–	–	–	–	–	–	–	135	–
Cc1nc(OCc2cn(C3CCN(Cc4ccccc4)CC3)nn2)nc(C)c1N	19	3	19	–	–	–	–	–	–	–	–	134	inactive
Cc1nc(OCC(=O)N(C)C2CCN(Cc3ccccc3)CC2)nc(C)c1N	< 10	2.3	60	–	–	–	–	–	–	–	–	–	–
Cc1ccc(OCc2cnnn2C2CCN(Cc3ccccc3)CC2)nn1	–	3.8	–	–	–	–	–	–	–	–	–	73	–
Clc1cnc(OCc2cn(C3CCN(Cc4ccccc4)CC3)nn2)nc1	86	5	99	–	–	–	–	–	–	–	–	43	–

Now from value to compound, other results behind:

Drug metabolism [1] [pmol/min]	logP [3]	activity at 0.5 h, 100 µM [4] [%]	Kp at 1 h [5]	clearance [6] [L/h/kg]	AUC [7] [µg·h/mL]	half-life [8] [h]	bioavailability [9] [%]	clearance [11] [L/h/kg]	Kp at 1 h [12]	half-life [13] [h]	SMILES	Activity [2] [%]	Activity [10]
24	2.6	100	1.1	1.3	2.12	1.6	58	–	–	–	Clc1cnc(OCc2cn(C3CCN(CC4CC4)CC3)nn2)nc1	162	–
< 10	2.4	94	–	–	4.52	–	57	0.6	1.3	4	Cc1c(COc2ncc(Cl)cn2)nnn1C1CCN(CC2CC2)CC1	311	inactive
40	4	100	–	–	–	–	–	–	–	–	Cc1cnc(OCc2cn(C3CCN(Cc4ccccc4)CC3)nn2)nc1	66	–
< 10	1.4	100	–	–	–	–	–	–	–	–	Cc1nc(OCc2cn(C3CCN(CC4CC4)CC3)nn2)nc(C)c1N	116	–
34	1.4	100	–	–	–	–	–	–	–	–	Cc1ccc(OCc2cn(C3CCN(CC4CC4)CC3)nn2)nn1	118	–
–	1.7	100	–	–	–	–	–	–	–	–	Cc1cnc(OCc2cn(C3CCN(CC4CC4)CC3)nn2)nc1	100	–
